Assay results from PubChem BioAssay (NCI).
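Interpolation was linear, between the two tested concentrations surrounding the appropriate level; five concentrations were tested over 48 hours in 96-well plates. TGI marks complete inhibition of growth.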

Columns and labels:
Experiment in all cases: growth of human tumour cells (NCI), 48 h
A498 renal = system: A498 renal
BT-549 breast = system: BT-549 breast
COLO 205 colon = system: COLO 205 colon
DU-145 prostate = system: DU-145 prostate
HCT-15 colon = system: HCT-15 colon
HL-60(TB) leukemia = system: HL-60(TB) leukemia
HOP-92 NSCLC = system: HOP-92 NSCLC
HT29 colon = system: HT29 colon
MDA-MB-435 = system: MDA-MB-435
NCI-H522 lung = system: NCI-H522 lung
OVCAR-4 ovarian = system: OVCAR-4 ovarian
OVCAR-8 ovarian = system: OVCAR-8 ovarian
RXF 393 renal = system: RXF 393 renal
SF-295 CNS = system: SF-295 CNS
SK-MEL-28 melanoma = system: SK-MEL-28 melanoma
U251 CNS = system: U251 CNS
UACC-62 melanoma = system: UACC-62 melanoma

Row | Structure (SMILES) | TGI (A498 renal) [µM] | TGI (BT-549 breast) [µM] | TGI (COLO 205 colon) [µM] | TGI (DU-145 prostate) [µM] | TGI (HCT-15 colon) [µM] | TGI (HL-60(TB) leukemia) [µM] | TGI (HOP-92 NSCLC) [µM] | TGI (HT29 colon) [µM] | TGI (MDA-MB-435) [µM] | TGI (NCI-H522 lung) [µM] | TGI (OVCAR-4 ovarian) [µM] | TGI (OVCAR-8 ovarian) [µM] | TGI (RXF 393 renal) [µM] | TGI (SF-295 CNS) [µM] | TGI (SK-MEL-28 melanoma) [µM] | TGI (U251 CNS) [µM] | TGI (UACC-62 melanoma) [µM]
1 | COC(=O)c1c(O)ccc2c1C1(Cc3ccccc3C1=O)C(O)O2 (configuration not stated) | > 100 | 37 | > 100 | > 100 | 54.2 | 40.4 | 60.2 | > 100 | 31.1 | 18.1 | 35.8 | 36.7 | > 100 | > 100 | > 100 | 61.4 | –
2 | C#CCOCC12C=CC(O1)C1C(=O)OCC12 (configuration not stated) | > 100 | > 100 | > 100 | > 100 | > 100 | > 100 | – | > 100 | > 100 | > 100 | > 100 | > 100 | > 100 | > 100 | > 100 | > 100 | > 100
3 | O=[As](O)(O)c1ccc(N=Nc2ccc(O)cc2)cc1 | > 100 | > 100 | > 100 | > 100 | > 100 | > 100 | > 100 | > 100 | > 100 | > 100 | > 100 | > 100 | > 100 | > 100 | > 100 | > 100 | > 100
4 | COc1nc(N)c(N=CC(OC(C)=O)C(OC(C)=O)C(COC(C)=O)OC(C)=O)c(=O)n1C (configuration not stated) | > 100 | > 100 | > 100 | > 100 | > 100 | > 100 | > 100 | > 100 | > 100 | > 100 | > 100 | > 100 | > 100 | > 100 | > 100 | > 100 | > 100
5 | COC(=O)c1c(OC(C)=O)ccc2c1c1c(OC(C)=O)c3ccccc3c(OC(C)=O)c1n2Cc1ccccc1 | 43.8 | 28.8 | 15.6 | 45.5 | 14.7 | 26.6 | 3.27 | 31.5 | 27.9 | 3.4 | 29.6 | > 50 | > 50 | 10.9 | 33.5 | 17.3 | 20.3
6 | c1ccc(CSCCc2ccncc2)cc1 | > 100 | > 100 | > 100 | > 100 | > 100 | 89.6 | > 100 | > 100 | > 100 | > 100 | > 100 | > 100 | > 100 | > 100 | > 100 | > 100 | > 100
7 | CC1(O)OC(=O)C2=C1CCC1C2CCC2(C)C(O)CCC12 (configuration not stated) | > 100 | > 100 | – | > 100 | > 100 | > 100 | > 100 | > 100 | > 100 | > 100 | > 100 | > 100 | – | > 100 | > 100 | > 100 | > 100
8 | CN(C)CCCN1c2ccccc2CCc2ccc([N+](=O)[O-])cc21 | 40.3 | 73.7 | 32 | 38.6 | 57.7 | 75.6 | – | 46.5 | 36 | 36.7 | > 100 | > 100 | – | 34.3 | 77.9 | > 100 | 33.3
9 | CCC(c1c[nH]c2ccc(Br)cc12)c1c[nH]c2ccc(Br)cc12 | 13.3 | 23.3 | 6.09 | 10.8 | 15 | 16.3 | 8.3 | 10.4 | 11 | 18.1 | 8.11 | 21.2 | 7.21 | 18.8 | 25.4 | 13.3 | 22.2
10 | Cc1ccc2c(=O)cc(-c3ccc(-c4ccccc4)s3)[nH]c2n1 | 72.7 | > 100 | > 100 | > 100 | > 100 | > 100 | > 85.6 | > 100 | > 100 | > 56.7 | > 100 | > 100 | > 100 | 99.5 | > 100 | > 100 | > 100
11 | O=C(Nc1cccc(F)c1)c1cc2ccc(O)cc2oc1=Nc1ccccc1F | 35.6 | 8.61 | 41.7 | 15.1 | 13.8 | 7.48 | – | 51.5 | 14.2 | 10.3 | 26.8 | 5.85 | – | 23.6 | 18 | 13.4 | 24
12 | CC[C@@H](/C=C\CCC(=O)C[C@H](O)CCC=C(C)C)O[Si](C(C)C)(C(C)C)C(C)C | > 100 | > 100 | > 100 | > 100 | > 100 | > 100 | > 100 | > 100 | > 100 | > 100 | > 100 | > 100 | > 100 | > 100 | > 100 | > 100 | > 100
13 | Brc1c(C#CCC2CCCCC2)ccc(C#CCC2CCCCC2)c1Br | > 100 | > 100 | > 100 | > 100 | > 100 | > 100 | > 100 | – | > 100 | > 100 | > 100 | > 100 | > 100 | > 100 | > 100 | > 100 | > 100
14 | CC1OC(OC2C(OC(=O)[C@@H]3CC(C)(C)C[C@H]4C5=CC[C@@H]6[C@@]7(C)C[C@H](O)[C@H](OC8OC(CO)C(O)C(O)C8O)[C@@](C)(CO)[C@@H]7[C@H](O)C[C@@]6(C)[C@]5(C)CC[C@@]34C)OCC(O)C2O)C(O)C(O)C1O (some centres not stated) | – | > 7.5 | > 7.5 | > 7.5 | > 7.5 | > 7.5 | > 7.5 | > 7.5 | > 7.5 | > 7.5 | > 7.5 | > 7.5 | > 7.5 | > 7.5 | – | > 7.5 | > 7.5
